Measured values as given in PubChem BioAssay AID1963867 (Molecular Pharmacology Branch, DTP, NCI, 2024).

Test system: KRAS-mutant PDC tumor spheroid with HUVEC/MSC, viability
Assay: Anticancer human tumor 327498-153-R-J2-PDC patient-derived uterine carcinosarcoma cell line growth inhibition [KRAS2]
Settings: for viability, T/C: stronger effect = lower value
Description: Multicellular complex tumor spheroid response to RAS pathway inhibitors in combination with a targeted agents in patient-derived cell lines with oncogenic KRAS variants from multiple cancer types
A high-throughput screen of multi-cell type tumor spheroids was designed to identify active combinations of targeted small molecules and KRAS pathway inhibitors. Complex spheroids include a stromal component modeled by human endothelial cells (HUVEC) and fibroblasts modeled by human mesenchymal stem cells (MSCs). The concentration ranges selected for each drug and investigational agent were based upon clinically achievable concentrations if the clinical Cmax of the agent was known.
Compounds. The drugs and investigational agents: BI-3406 (NSC825286), BAY-293 (NSC824723), batoprotafib (TNO155; NSC825523), sotorasib (AMG 510; NSC818433), MRTX1257 (NSC819558), elimusertib (BAY 1895344; NSC800525), molibresib (GSK525762; NSC774829), temuterkib (LY3214996; NSC803410), venetoclax (NSC766270), alisertib (NSC759677), olaparib (NSC753686), talazoparib (NSC767125), erdafitinib (NSC781556), ipatasertib (NSC767898), cabozantinib (NSC761068), nintedanib (NSC756659), abemaciclib (NSC768073), docetaxel (NSC628503), trametinib (NSC758246), and sapanisertib (NSC764658) were obtained from the National Cancer Institute (NCI) Developmental Therapeutics Program Chemical Repository. The FDA-approved anticancer drug set is available from the Developmental Therapeutics Program. […] The stock solutions were prepared in dimethyl sulfoxide (DMSO, Sigma-Aldrich, St. Louis, MO, cat. D2650) at 800-fold the tested concentration and stored at -70 degrees C prior to their use. All drugs and investigational agents were tested over a range starting from a high concentration at or near the clinical Cmax and decreasing in half-log increments. If the clinical Cmax for an agent had not been determined, the highest concentration tested was 10 microM.
Cell Culture. All cells were maintained in an incubator at 37 degrees C and 5% CO2 with 95% humidity. The PDC lines were cultured according to standard operating procedures established by the NCI PDMR (https://pdmr.cancer.gov/sops/default.htm). Briefly, all PDCs were thawed and cultured in Matrigel-coated flasks prepared with a working solution of 1X Ham's F-12 nutrient mix, without supplementation (Invitrogen, Waltham, MA, cat. 11765054), 100 U/mL penicillin-streptomycin (Invitrogen, cat. 15140122), and 2.5% Matrigel (Corning Inc., Corning, NY, cat. 354248) for the first three passages. All PDCs were cultured in complete DMEM/F-12 media containing advanced DMEM/F-12 (Invitrogen, cat. 12634028), 4.9% defined fetal bovine serum, heat inactivated (HyClone Laboratories Inc., Logan, UT, cat. SH30070.03HI), 389 ng/mL hydrocortisone (Sigma-Aldrich, cat. H4001), 9.7 ng/mL human EGF recombinant protein (Invitrogen, cat. PHG0313), 23.4 microg/mL adenine (Sigma-Aldrich, cat. A2786), 97.3 U/mL penicillin-streptomycin (Invitrogen, cat. 15140122), 1.9 mM L-glutamine (Invitrogen, cat. 25030081), and 9.7 microM Y-27632 dihydrochloride (Tocris Bioscience, Bristol, United Kingdom, cat. 1254). The PDCs were cultured in complete DMEM/F12 media without 9.7 microM Y-27632 dihydrochloride for at least two passages prior to the screen. The established cell line HOP-62 was cultured in RPMI 1640 medium, HEPES (Invitrogen, cat. 22400105) with 10% defined fetal bovine serum (HyClone Laboratories Inc., cat. SH30070.03) and 2 mM L-glutamine (Invitrogen, cat. 25030081). The pooled donor HUVEC were cultured in endothelial cell growth medium 2 (PromoCell, Heidelberg, Germany, cat. C-22011) and the hMSC were cultured in mesenchymal stem cell growth medium 2 (PromoCell, cat. C-28009). For all experiments, HUVEC and hMSC were used at passages </=5, while the malignant cell lines were used at passages </=15. […]
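Further: spheroids exposed to agents for seven days before reading.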
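Wherever viability, T/C is given: 100% = DMSO vehicle wells so lower means fewer viable cells.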

## Cn1ncnc1[C@H]1c2n[nH]c(=O)c3cc(F)cc(c23)N[C@@H]1c1ccc(F)cc1 + CNCc1ccccc1-c1csc(C(C)Nc2nc(C)nc3cc(OC)c(OC)cc23)c1
Curve of first compound, second compound 0.1 µM
  IC50: 18.4 nM
Curve of first compound, second compound 0.316 µM
  IC50: 10.7 nM
Curve of first compound, second compound 1 µM
  IC50: 5.81 nM
Curve of first compound, second compound 3.16 µM
  IC50: < 0.316 nM
Curve of first compound, second compound 10 µM
  IC50: < 0.316 nM
Second compound 0.1 µM, first compound 0.000316 µM
  viability, T/C: 84%
Second compound 0.1 µM, first compound 0.001 µM
  viability, T/C: 81.7%
Second compound 0.1 µM, first compound 0.00316 µM
  viability, T/C: 81.6%
Second compound 0.1 µM, first compound 0.01 µM
  viability, T/C: 62.9%
Second compound 0.1 µM, first compound 0.0316 µM
  viability, T/C: 38%
Second compound 0.1 µM, first compound 0.1 µM
  viability, T/C: 19.7%
Second compound 0.316 µM, first compound 0.000316 µM
  viability, T/C: 72.8%
Second compound 0.316 µM, first compound 0.001 µM
  viability, T/C: 70.2%
Second compound 0.316 µM, first compound 0.00316 µM
  viability, T/C: 61.7%
Second compound 0.316 µM, first compound 0.01 µM
  viability, T/C: 54.4%
Second compound 0.316 µM, first compound 0.0316 µM
  viability, T/C: 28.2%
Second compound 0.316 µM, first compound 0.1 µM
  viability, T/C: 19.9%
Second compound 1 µM, first compound 0.000316 µM
  viability, T/C: 63.2%
Second compound 1 µM, first compound 0.001 µM
  viability, T/C: 68.8%
Second compound 1 µM, first compound 0.00316 µM
  viability, T/C: 53.7%
Second compound 1 µM, first compound 0.01 µM
  viability, T/C: 44.5%
Second compound 1 µM, first compound 0.0316 µM
  viability, T/C: 30.9%
Second compound 1 µM, first compound 0.1 µM
  viability, T/C: 21.7%
Second compound 3.16 µM, first compound 0.000316 µM
  viability, T/C: 0.09%
Second compound 3.16 µM, first compound 0.001 µM
  viability, T/C: 0.09%
Second compound 3.16 µM, first compound 0.00316 µM
  viability, T/C: 0.1%
Second compound 3.16 µM, first compound 0.01 µM
  viability, T/C: 0.07%
Second compound 3.16 µM, first compound 0.0316 µM
  viability, T/C: 0.06%
Second compound 3.16 µM, first compound 0.1 µM
  viability, T/C: 0.15%
Second compound 10 µM, first compound 0.000316 µM
  viability, T/C: 0.12%
Second compound 10 µM, first compound 0.001 µM
  viability, T/C: 0.11%
Second compound 10 µM, first compound 0.00316 µM
  viability, T/C: 0.12%
Second compound 10 µM, first compound 0.01 µM
  viability, T/C: 0.12%
Second compound 10 µM, first compound 0.0316 µM
  viability, T/C: 0.16%
Second compound 10 µM, first compound 0.1 µM
  viability, T/C: 0.34%

## CC(C)n1nc(-c2ccc3oc(N)nc3c2)c2c(N)ncnc21
Compound 0.000316 µM
  viability, T/C: 99.8% [middle of 5 runs]
Compound 0.001 µM
  viability, T/C: 92.1% [middle of 5 runs]
Compound 0.00316 µM
  viability, T/C: 77.7% [middle of 5 runs]
Compound 0.01 µM
  viability, T/C: 49.9% [middle of 5 runs]
Compound 0.0316 µM
  viability, T/C: 16% [middle of 5 runs]
Compound 0.1 µM
  viability, T/C: 9.59% [middle of 5 runs]
Curve of compound
  IC50: 9.11 nM [middle of 5 runs]
